Measurements: PubChem BioAssay AID179 (DTP/NCI, 2004)
pEC50, pIC50: −log10 of the molar value. The source made the active and inactive calls.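 The calls were made as follows: active = compounds giving half or more protection of infected cells from virus-caused growth loss, again on retest; inactive = the rest.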 *1 amine or outer side, *2 acyl side, *3 side chain or, on linkers, in order; H or OH if unused. Where a SMILES comes first, the peptide text is derived from it. [ ]: non-standard residue; d: D form. The star is where a group is joined. X3 = CC(=O)N(C)SCC(N[*:1])C(=O)[*:2]; Fmoc = O=C(OCC1c2ccccc2-c2ccccc21)*; For = O=C*

Tested on: CEM cells HIV-1 protection, formazan growth assay
Assay: NCI AIDS Antiviral Assay
Conditions: for pIC50: measured here: growth of uninfected CEM cells
Method in brief: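 Human CEM cells, uninfected and HIV-1-infected, received five drug concentrations, and growth was read by soluble formazan assay. Compounds giving at least 50% protection were retested; reproducible 100% protection defined confirmed active.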

Row | Structure (SMILES) | pEC50 | pIC50 | outcome
1 | Cc1cc2c(cc1C)[n+](=O)c(N1CCN(c3ccc([N+](=O)[O-])cc3)CC1)c(C#N)n2[O-] | < 4.30 | < 4.30 | 
2 | COCc1cn(C2CCC(CO)O2)c(=O)[nH]c1=O (configuration not stated) | < 3.31 | 3.57 | 
3 | CN(C)Cc1cc(C(=O)/C=C/c2ccc(Br)cc2)cc(CN(C)C)c1O | < 3.70 | 5.35 | 
4 | O=S(=O)(Nc1nnc2c3ccccc3cnn12)c1ccc(F)cc1S | 3.96 | 3.33 | 
5 | CCC[N+]12CC=C(CO)C1C(O)CC2 (configuration not stated) | < 3.05 | < 3.05 | 
6 | CC(=O)N(CC1CCCN(C)C1)C1C2CC3CC(C2)CC1C3 (configuration not stated) | < 3.93 | 4.33 | 
7 | O=C(CC1(O)C(=O)Nc2c(Cl)cc(Cl)cc21)c1cccc([N+](=O)[O-])c1 (configuration not stated) | < 4.72 | < 4.72 | 
8 | O=c1[nH]c2ccccc2c(=O)n1/N=C\c1ccccc1O | < 3.70 | < 3.70 | 
9 | O=C(CC(C(=O)c1ccsc1)c1cccs1)c1cccs1 (configuration not stated) | < 4.66 | < 4.66 | 
10 | CC(=O)NNC(=S)N/C=C(\C#N)C(=O)c1ccc2ccccc2c1 | < 3.70 | < 3.70 | 
11 | Cc1cc[n+]2c(c1)-c1cc(C)cc[n+]1CC2 | < 3.70 | 3.79 | 
12 | CCC1=NC(N/N=C/c2ccccc2O)=N/C1=C\c1ccccc1O | < 4.30 | 5.04 | 
13 | CCOC(=O)C1C(=O)CC(C)(O)C(C(=O)OCC)C1c1ccc(OC)cc1 (configuration not stated) | < 3.70 | < 3.70 | 
14 | CCOC(=O)c1ccc(C(=O)n2ccnc2)[nH]1 | < 3.70 | < 3.70 | 
15 | CC(C)C(=O)OCC1OC(n2c(Br)nc3c(=O)[nH]c(N)nc32)C(OC(=O)C(C)C)C1OC(=O)C(C)C (configuration not stated) | < 3.70 | 4.04 | 
16 | N#CCN1CCOCCOCCN(CC#N)CCOCCOCC1 |  |  | inactive
17 | CC(=O)SC1CC(=O)C=C2CCC3C4CCC(=O)OC4(C)CCC3C21C (configuration not stated) | < 3.70 | < 3.70 | 
18 | COc1cc(NCCN)c2ncsc2c1 | < 3.70 | 4.07 | 
19 | C=C1C(=O)O[C@H]2C3OC3(C)CC/C=C(/C(=O)OC)[C@@H](OC(C)=O)[C@H](OC(=O)C3(C)OC3C)[C@H]12 (some centres not stated) |  |  | inactive
20 | O=C(O)CN(CC(=O)O)Cc1cc(C#Cc2ccc(C#Cc3ccccc3)cc2)cc(CN(CC(=O)O)CC(=O)O)n1 | < 4.11 | 4.71 | 
21 | COc1cc(-c2cc(=O)c3c(O)c(OC)c(OC)c(OC)c3o2)ccc1O | < 3.88 | 5.03 | 
22 | CC(=O)N(C)SCC(NC(=O)C(Cc1ccccc1)NC(=O)OCC1c2ccccc2-c2ccccc21)C(=O)NC(Cc1ccccc1)C(=O)NC(Cc1cn(C=O)c2ccccc12)C(=O)NC(CCCCNC(=O)OCC1c2ccccc2-c2ccccc21)C(=O)NC(C(=O)NC(CSN(C)C(C)=O)C(=O)NC(C(N)=O)C(C)O)C(C)O (configuration not stated) (Fmoc-F[X3]FW(For)K(Fmoc)T[X3]T-NH2; configuration not given here) | < 4.00 | 4.10 | 
23 | O=C1CC2(CCCC2)C(=O)N1c1cccc([N+](=O)[O-])c1 | < 3.46 | 3.56 | 
24 | NC(=O)c1ccc[n+](C2=C([O-])c3ccccc3C(=O)/C2=N\S(=O)(=O)c2ccccc2)c1 | < 3.70 | 4.95 | 
25 | COc1cc(C2c3cc4c(cc3C(=O)C3CCC(=O)N32)OCO4)cc(OC)c1O (configuration not stated) | < 4.30 | 4.56 | 
26 | CC1(C)CC(C2=NCCO2)CC(C)(C)N1 | < 3.70 | < 3.70 | 
27 | Cc1cc2c(C(C)C)c(O)c(O)c(C=Nc3ccccc3O)c2c(O)c1-c1c(C)cc2c(C(C)C)c(O)c(O)c(C=Nc3ccccc3O)c2c1O | < 3.70 | 5.49 | 

Row | Structure (SMILES) | pEC50 | pIC50 | outcome
28 | Cc1c(C)c2cc3c(=O)c(CCl)coc3c(C)c2oc1=O | < 4.77 | < 4.77 | 
29 | CC(=O)Oc1c2c(cc3c1C(=O)NC1C3=CC(O)[C@@H](OC(C)=O)[C@H]1OC(C)=O)OCO2 (some centres not stated) |  |  | inactive
30 | C[C@@H]1C(O)CC[C@H](C)C12CC=CC2=O (some centres not stated) | < 3.70 | < 3.70 | 
31 | C#CCNC(=O)NC(CCCNC(=O)OCc1ccccc1)C(=O)OCc1ccccc1 (configuration not stated) | < 4.08 | < 4.08 | 
32 | CN(C)CCCCN1c2ccccc2Sc2ccc(N=[N+]=[N-])cc21 | < 3.70 | 5.49 | 
33 | CN1C(=O)C(O)(CC(=O)c2ccccc2)c2ccccc21 (configuration not stated) | < 3.70 | 4.45 | 
34 | COc1ccc(/C=C/C(C(=O)O)C(=O)O)cc1 | < 3.40 | 4.25 | 
35 | CN(c1ccccc1)c1c(-c2ccccc2)c(=O)oc2c1ccc1occc12 |  |  | inactive
36 | C/C(=N\N=C(N)N)C(CN(C)C)C(c1ccccc1)c1c(O)c2ccccc2oc1=O (configuration not stated) | < 4.39 | 4.76 | 
37 | COc1ccc(C(=O)O/N=C2/CCCCC2CN(C)C)cc1 (configuration not stated) |  |  | inactive
38 | COC1/C=C/OC2(C)Oc3c(C)c(O)c4c(O)c(c(/C=N/N5C(C)CN(Cc6ccc(C(C)(C)C)cc6)CC5C)c(O)c4c3C2=O)NC(=O)/C(C)=C\C=C\C(C)C(O)C(C)C(O)C(C)C(OC(C)=O)C1C (configuration not stated) | < 3.70 | 4.91 | 
39 | CC(C)C1OC(=O)/C=C/C=C/C=C/C=C/C=C/CC(O)CC(O)CC(O)CC(O)CC(O)CC(O)CC(O)CC(O)/C=C/C1C (configuration not stated) | < 3.70 | < 3.70 | 
40 | CC(=O)Oc1ccc2cc(Oc3ccc(Cl)c(Cl)c3)c(=O)oc2c1 | < 3.70 | 4.07 | 
41 | S=C1c2ccc(Cl)cc2-n2cnnc2C2CSCN12 (configuration not stated) | < 3.70 | < 3.70 | 
42 | CCN(CC)c1c(-c2c(N(CC)CC)c(OC(C)=O)c3sccn3c2=O)c(=O)n2ccsc2c1OC(C)=O | < 3.70 | < 3.70 | 
43 | CC(O)(C(=O)N(O)c1ccc(Cl)cc1)c1ccc(Cl)cc1 (configuration not stated) | < 4.70 | 4.75 | 
44 | O=C1c2ccccc2C(=O)c2c(O)c(NCCNCCO)cc(O)c21 |  |  | inactive
45 | C/C(=N/NC(=S)N1CCN(C(=S)N/N=C(/C)c2ccccn2)CC1)c1ccccn1 | < 3.70 | 5.40 | 
46 | CC1=NN(C(=O)c2ccccc2O)C(=O)/C1=C/c1ccco1 | < 4.06 | 6.22 | 
47 | CCOP(=O)(OCC)C(Cc1ccc(OC)c(OC)c1)N=C(c1ccccc1)c1ccccc1 (configuration not stated) | < 3.70 | 4.53 | 
48 | CC1(C)CC(/C=C2/OC(=O)c3ccccc32)=C(C#N)C(=O)O1 | < 4.47 | < 4.47 | 
49 | CC(C)C[C@H]1[C@@H](OCc2ccccc2)COS(=O)(=O)N1[C@H](C)c1ccccc1 | < 3.70 | 4.95 | 
50 | N#C/C(=C\N1CC(=O)NC1=S)c1nc2ccccc2s1 |  |  | inactive
51 | CC1(C)CCSC(/C=C/c2ccccc2)=N1 | < 4.70 | 5.38 | 
52 | CN1c2ccccc2Oc2ccc3ccccc3c21 | < 3.70 | 3.87 | 
53 | O=C(O)c1c2c(cc3c(=O)c4ccccc4[nH]c13)CCCC2 | < 3.21 | 4.07 | 
54 | O=c1ccc(=O)n(-c2ccc(Br)cc2)[nH]1 | < 4.57 | < 4.57 | 

Row | Structure (SMILES) | pEC50 | pIC50 | outcome
55 | COC1/C=C/OC2(C)Oc3c(C)c(OC(C)=O)c4c(c3C2=O)C(=O)C=C(NC(=O)/C(C)=C\C=C\C(C)C(OC(C)=O)C(C)C(O)C(C)C(OC(C)=O)C1C)C4=O (configuration not stated) | < 3.70 | 5.52 | 
56 | O=C1c2ccccc2C(=O)c2nc(-c3ccccc3)c(-c3ccccc3)nc21 |  |  | inactive
57 | NC(CCCCNC(=O)C(Cc1ccccc1)NC(=O)OCc1ccccc1)C(=O)NC(CCCCNC(=O)C(Cc1ccccc1)NC(=O)OCc1ccccc1)C(=O)NC(CCCCNC(=O)C(Cc1ccccc1)NC(=O)OCc1ccccc1)C(=O)NC(CCCCNC(=O)C(Cc1ccccc1)NC(=O)OCc1ccccc1)C(=O)NC(CCCCNC(=O)C(Cc1ccccc1)NC(=O)OCc1ccccc1)C(=O)NC(CCCCNC(=O)C(Cc1ccccc1)NC(=O)OCc1ccccc1)C(=O)O (configuration not stated) | < 4.30 | < 4.30 | 
58 | O=C(O)c1ccc(NC(NC(=O)C(C(F)(F)F)C(F)(F)F)(C(F)(F)F)C(F)(F)F)cc1 | < 3.70 | < 3.70 | 
59 | C=CCN=C1NC(=O)C(CC(=O)Nc2ccc([N+](=O)[O-])cc2[N+](=O)[O-])S1 (configuration not stated) | < 4.86 | < 4.86 | 
60 | Clc1ccc(NC2=NCCN=C(Nc3ccc(Cl)cc3)SS2)cc1 | < 3.70 | 4.64 | 
61 | CC1(C)C(=O)C2(N)CCC1C2 (configuration not stated) | < 3.70 | < 3.70 | 
62 | CC1(c2cccc3ccccc23)OC(=O)c2cccc(F)c21 (configuration not stated) | < 4.44 | 5.23 | 
63 | C/C=C(\CCCCN1C(=O)CCC1O)[Si](C)(C)C (configuration not stated) |  |  | inactive
64 | Cc1ccc(S(=O)(=O)NC(=S)S)cc1 | < 3.70 | < 3.70 | 
65 | COc1cccc(C2=NC(C(C)(C)C)CO2)c1-c1ccccc1C1OCCO1 (configuration not stated) | < 3.47 | < 3.47 | 
66 | CC1=C[P+](CCc2ccccc2)(CCc2ccccc2)C=C1C |  |  | inactive
67 | Cc1cc(NS(=O)(=O)c2ccc(NC(=O)c3ccc4nc5ccccc5c(Nc5ccc(S(N)(=O)=O)cc5)c4c3)cc2)no1 | < 4.09 | 4.53 | 
68 | COC(=O)C(=NNc1ccccc1[N+](=O)[O-])C(=O)OC |  |  | inactive
69 | CNC(=O)Oc1c(Cl)cccc1SSc1cccc(Cl)c1OC(=O)NC | < 3.70 | 4.71 | 
70 | Cc1ncc(N)c(C(=O)O)n1 | < 2.79 | < 2.79 | 
71 | O=C(O)C1(Cl)C2(Cl)C(Cl)=CC3(Cl)C(Cl)(C(=O)O)C2(Cl)C31Cl (configuration not stated) | < 3.70 | < 3.70 | 
72 | CCN(CC)CCCC(C)Nc1cc(-c2ccccc2)nc2ccc(OC)cc12 (configuration not stated) | < 3.44 | 5.70 | 
73 | c1ccc(C2=NOCC3(c4ccccc4)OC23)cc1 (configuration not stated) | < 4.50 | 4.92 | 
74 | CO[C@H]1C[C@](C)(O)Cc2cc3c(c(O)c21)C(=O)c1c(O)cc2c(c1C3=O)O[C@@H]1O[C@@]2(C)[C@H](O)[C@@H](N(C)C)[C@@H]1O | < 5.16 | 7.33 | 
75 | COc1cc(C2c3cc4c(cc3C(O)[C@H]3COC(=O)C23)OCO4)cc(OC)c1O (some centres not stated) | < 3.70 | 7.20 | 
76 | O=C(O)c1nc2ccccc2nc1NCc1ccc(F)cc1 | < 3.70 | 4.25 | 
77 | O=C1C(=O)c2ccccc2C(O)=C1C(C1=C(O)c2ccccc2C(=O)C1=O)c1ccccc1 | < 3.70 | 4.68 | 
78 | COC(=O)C(/C(=N/N)C(=O)Nc1ccc(C)c(C)c1)c1nc2ccc(Cl)cc2[nH]c1=O (configuration not stated) | < 3.67 | 3.87 | 
79 | CN1CCC/C1=N\c1scc(-c2ccc(Br)cc2)[n+]1-c1ccccc1 | < 4.42 | 5.24 | 
